Each structure is given as a SMILES string. The source made the active and inactive calls. The calls are words filed in the database; no cut-off is given here.

The text below walks through data of ChEMBL document CHEMBL6153079, “Discovery of noncovalent diaminopyrimidine-based Inhibitors for glioblastoma via a dual FAK/DNA targeting strategy” (Eur J Med Chem, 2025).

In data set [1] the target is T1, Focal adhesion kinase 1 (Homo sapiens, UniProt Q05397). Description: Inhibition of FAK (unknown origin) at 10 nM relative to control.
Target sequence in this assay (Q05397 2-1052 limits assumed): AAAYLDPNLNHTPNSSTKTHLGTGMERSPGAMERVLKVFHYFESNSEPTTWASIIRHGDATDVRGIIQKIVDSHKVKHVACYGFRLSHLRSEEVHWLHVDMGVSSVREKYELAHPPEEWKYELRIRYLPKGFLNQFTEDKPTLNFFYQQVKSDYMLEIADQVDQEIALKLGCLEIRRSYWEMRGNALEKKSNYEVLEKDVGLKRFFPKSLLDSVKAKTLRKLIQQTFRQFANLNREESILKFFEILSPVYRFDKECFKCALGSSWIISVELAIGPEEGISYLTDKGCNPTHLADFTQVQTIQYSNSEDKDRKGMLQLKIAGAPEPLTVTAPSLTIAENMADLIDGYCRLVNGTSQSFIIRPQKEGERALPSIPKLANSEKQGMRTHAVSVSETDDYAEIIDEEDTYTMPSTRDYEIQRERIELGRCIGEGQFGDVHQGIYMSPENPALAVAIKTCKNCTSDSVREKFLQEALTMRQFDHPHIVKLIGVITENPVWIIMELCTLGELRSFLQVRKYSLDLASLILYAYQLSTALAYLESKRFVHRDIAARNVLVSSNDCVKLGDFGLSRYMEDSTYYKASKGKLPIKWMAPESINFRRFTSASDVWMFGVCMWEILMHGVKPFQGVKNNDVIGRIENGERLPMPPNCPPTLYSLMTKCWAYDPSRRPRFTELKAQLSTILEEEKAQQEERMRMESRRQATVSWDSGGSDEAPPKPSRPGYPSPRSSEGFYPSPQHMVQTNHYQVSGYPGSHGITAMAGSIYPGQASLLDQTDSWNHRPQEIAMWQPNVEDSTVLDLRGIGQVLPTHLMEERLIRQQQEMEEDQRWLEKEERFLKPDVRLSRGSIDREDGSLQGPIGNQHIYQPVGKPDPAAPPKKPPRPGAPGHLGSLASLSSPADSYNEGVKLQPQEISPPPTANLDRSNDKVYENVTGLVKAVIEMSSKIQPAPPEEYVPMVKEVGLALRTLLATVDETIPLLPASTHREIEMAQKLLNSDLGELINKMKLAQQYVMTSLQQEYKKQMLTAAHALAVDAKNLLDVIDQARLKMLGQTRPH
Data set [2] relates to U-87 MG. Description: Induction of DNA damage in human U-87 MG cells assessed as comet tail moment at 0.1 to 2 uM incubated for 2.5 to 3 hrs by comet assay. The note with it: U-87MG ATCC, time 2.5-3 hrs. The data set is classed as functional.
Data set [3] can be described thus: Selectivity ratio of IC50 for cytotoxicity against human LO2 assessed as cell viability to IC50 for antiproliferative activity against human U-87 MG assessed as cell viability. The data set is classed as toxicity. Conditions: LO2 cells versus U-87 MG cells, read-out: Ratio IC50.
Data set [4] in a line: Distribution coefficient, logD of compound in n-Octanol/water at pH 7.4. The data set is classed as physicochemical.
Data set [5] in a line: Cytotoxicity against human LO2 assessed as cell viability incubated for 48 hrs by MTT assay. Conditions: LO2 cells. The data set is classed as toxicity, cell-based, L02.
For data set [6], the target named is T1, Focal adhesion kinase 1. Description: Inhibition of FAK (unknown origin) preincubated for 10 mins followed by ATP and substrate addition and measured after 50 mins by HTRF analysis. On the technique in general: Time-resolved FRET reads energy transfer from a long-lived donor to a nearby acceptor.
Target sequence in this assay (Q05397 whole entry): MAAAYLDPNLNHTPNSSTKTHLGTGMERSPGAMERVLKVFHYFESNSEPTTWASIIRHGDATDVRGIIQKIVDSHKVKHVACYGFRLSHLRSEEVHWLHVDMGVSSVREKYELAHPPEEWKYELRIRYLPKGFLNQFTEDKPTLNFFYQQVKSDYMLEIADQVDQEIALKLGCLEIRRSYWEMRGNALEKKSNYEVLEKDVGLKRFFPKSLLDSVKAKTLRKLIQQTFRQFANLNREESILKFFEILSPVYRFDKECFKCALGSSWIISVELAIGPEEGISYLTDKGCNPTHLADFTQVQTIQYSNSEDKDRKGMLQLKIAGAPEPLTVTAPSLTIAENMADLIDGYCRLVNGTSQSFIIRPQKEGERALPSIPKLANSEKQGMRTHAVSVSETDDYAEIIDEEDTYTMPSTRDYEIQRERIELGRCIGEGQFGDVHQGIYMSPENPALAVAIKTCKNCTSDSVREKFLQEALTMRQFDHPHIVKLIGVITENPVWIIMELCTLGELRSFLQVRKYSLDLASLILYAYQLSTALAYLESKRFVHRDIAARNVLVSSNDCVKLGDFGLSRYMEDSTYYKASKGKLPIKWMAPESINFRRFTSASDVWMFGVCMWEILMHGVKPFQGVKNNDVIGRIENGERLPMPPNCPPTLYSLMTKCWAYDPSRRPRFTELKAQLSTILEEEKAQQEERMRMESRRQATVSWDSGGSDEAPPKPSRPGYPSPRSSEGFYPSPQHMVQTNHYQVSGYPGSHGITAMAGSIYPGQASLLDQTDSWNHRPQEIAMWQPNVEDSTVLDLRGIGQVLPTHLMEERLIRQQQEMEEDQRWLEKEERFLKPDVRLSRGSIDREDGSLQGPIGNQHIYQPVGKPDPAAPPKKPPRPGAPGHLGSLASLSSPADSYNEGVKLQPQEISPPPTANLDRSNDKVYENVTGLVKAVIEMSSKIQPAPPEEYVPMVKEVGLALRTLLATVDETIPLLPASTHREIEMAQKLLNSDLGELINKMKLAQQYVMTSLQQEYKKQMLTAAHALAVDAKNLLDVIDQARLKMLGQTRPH
Data set [7] deals with U-87 MG. In words: Antiproliferative activity against human U-87 MG assessed as cell viability incubated for 48 hrs by MTT assay. The data set is classed as functional, cell-based, U-87MG ATCC. (Tetrazolium assays rely on reduction of a dye to a coloured formazan, in cell work by metabolically active cells.)
The test system of a further data set is U-251. Description: Antiproliferative activity against human U-251 assessed as cell viability incubated for 48 hrs by MTT assay. The data set is classed as functional, cell-based. Conditions: U-251, 48 h.
Data set [8] can be described thus: Selectivity ratio of IC50 for cytotoxicity against human LO2 assessed as cell viability to IC50 for antiproliferative activity against human U-251 assessed as cell viability. The data set is classed as toxicity. Conditions: LO2 cells versus U-251 cells, read-out: Ratio IC50.
For data set [9], the target named is T1, Focal adhesion kinase 1. Description: Inhibition of FAK (unknown origin) at 50 nM relative to control.
Target sequence in this assay (Q05397 2-1052 limits assumed): as the sequence (Q05397 2-1052 limits assumed) above
A short description of data set [10]: Cytotoxicity against human 2BS assessed as cell viability incubated for 48 hrs by MTT assay. The data set is classed as toxicity, cell-based. The note with it: 2BS cells.
Data set [11] can be described thus: Effective permeability of compound at pH 7.4 incubated for 16 hrs by LCMS analysis. The data set is classed as ADME. Conditions: pH 7.4, 16 h.

One may read the inhibition as how much of the control response was suppressed. Read a high inhibition as a response far below the control. As a reminder, the logD is lipophilicity at a set pH, counting ionised and neutral species. Read a high logD as a more lipophilic compound. For orientation: IC50 means the concentration that inhibits the measured activity by half. In the case of `CNC(=O)c1ccccc1Nc1nc(Nc2ccc(N3CCN(C)CC3)cc2)ncc1Cl`, the inhibition stood at 76.4% on Focal adhesion kinase 1 [1] and 80.2% against Focal adhesion kinase 1 [9]. For the same compound, the outcome with U-87 MG [2] was inactive. Further, the selectivity ratio in data set [3] and in [8] was more than 40 in each case. The compound further had a logD in data set [4] of 3.1. Also, the IC50 at 48 h in data set [5] was determined as 801 nM; in [10], 11600 nM. The IC50 on Focal adhesion kinase 1 [6] was 3.2 nM; with U-87 MG [7], 17 nM; in the data set with U-251 it was 64 nM.
Consider `CNC(=O)c1ccccc1Nc1nc(Nc2ccc(N3CCN(CCOC(=O)c4ccc(N(CCCl)CCCl)cc4)CC3)cc2)ncc1C(F)(F)F`, for which the inhibition was 81.3% on Focal adhesion kinase 1 [1] and 96.4% on Focal adhesion kinase 1 [9]. The Peff in [11] was 0.001 10^-6 cm/s. The selectivity ratio in [3] and in data set [8] was more than 40 throughout. For the same compound, the logD in [4] amounted to 5.34. For the same compound, the IC50 at 48 h in data set [5] was determined as 1210 nM; in data set [10], 24100 nM. Further, the values for the IC50 on Focal adhesion kinase 1 [6], in the data set on U-87 MG [7] and in the data set on U-251 were 4.28 nM, 27 nM and 31 nM, respectively.
